Laboratory results from patent US20260306491A1, “EGFR INHIBITOR FOR TREATING CANCERS COMPRISING ATYPICAL EGFR MUTATIONS” (ORIC Pharmaceuticals, Inc., priority 2023, published 2026).

Columns and labels:
Experiment in all cases: EGFR kinase activity (AQT0794 peptide, Sox fluorescence)
Assay type in all cases: biochemical
[1] = molecular target: T1, EGFR_d746-750 G724S (Homo sapiens, UniProt P00533, DEL746-750/G724S); details: 1 mM ATP, 2.0 nM enzyme, room temperature
T1 construct: purchased SignalChem E10-122D3G
Experimental: (§1) Compound I was dissolved in DMSO to generate a 10 mM stock solution. Dosing solutions for biochemical assays were prepared by serial dilution in DMSO followed by dilution in assay buffers as described in the experimental procedures. Stock formulations were stored at −80° C. and dosing solutions were prepared for each experiment immediately prior to use.
(§2) Activity of human recombinant EGFR wildtype and mutant proteins was measured by the phosphorylation of a peptide substate via chelation-enhanced fluorescence using the sulfonamido-oxine (Sox) chromophore detection format. Compound I was solubilized in DMSO. 16-point half log titrations in 100% DMSO were carried out by a Bravo liquid handler (Agilent) in a 384-well polypropylene plate (Greiner Cat. #781201). Using the Bravo liquid handler, intermediate 1:10 dilutions in a 384-well polypropylene plate were created in assay buffer. For the enzymatic reactions, 5 μL from the intermediate compound dilution plate was transferred to a low volume 384 well, black flat-bottom polystyrene microplate (Greiner Cat. #784076). A separate plate was generated for each enzyme. Next, 5 μL of a 4× ATP/AQT0794 working solution was added to the assay plate. Finally, 10 μL of 2× enzyme was added to start the reactions. The plate was sealed with a PerkinElmer TopSeal-A Plus plate seal (Cat. #6050185) and read at excitation (360 nm) and emission (492 nm) in continuous kinetic mode every 2 minutes for 3 hours at room temperature. Reactions were performed in 50 mM HEPES, pH 7.5, 1 mM ATP, 1.0 mM DTT, 0.015% Brij-35, 0.01% BSA, 1.0 mM EGTA, 10 mM MgCl2, 10 μM EGFR peptide substrate probe from AssayQuant (Cat. #AQT0794) plus recombinant EGFR protein (Table 1). The final DMSO concentration was 2.5%.
(§3) Real-time continuous kinetic data were loaded into Dotmatics software where slopes were calculated, converted to % inhibitions and IC50s were generated using the four-parameter non-linear regression curve fit. Reactions lacking enzymes were used as 100% inhibition controls. After addition of recombinant EGFR and its substrates ATP and AQT0794, the activity of EGFR was measured by quantification of the phosphorylation of the AQT0794 peptide substate via chelation-enhanced fluorescence using the sulfonamido-oxine (Sox) chromophore detection format with diminishing signal indicative of inhibition of EGFR activity.

[2] = molecular target: T2, EGFR_G719S (Homo sapiens, UniProt P00533, G719S); details: 1 mM ATP, 1.0 nM enzyme, room temperature
T2 construct: purchased SignalChem E10-12HG
Experimental: as §1, §2, §3

[3] = molecular target: T3, EGFR_L792H (Homo sapiens, UniProt P00533, L792H); details: 1 mM ATP, 1.0 nM enzyme, room temperature
T3 construct: purchased SignalChem E10-122J2G
Experimental: as §1, §2, §3

[4] = molecular target: T4, EGFR WT (Homo sapiens, UniProt P00533); details: 1 mM ATP, 2.0 nM enzyme, room temperature
T4 construct: purchased ThermoFisher PV3872
Experimental: as §1, §2, §3

[5] = molecular target: T5, EGFR_L747S (Homo sapiens, UniProt P00533, L747S); details: 1 mM ATP, 0.5 nM enzyme, room temperature
T5 construct: purchased SignalChem E10-122Y2G
Experimental: as §1, §2, §3

[6] = molecular target: T6, EGFR_G719C (Homo sapiens, UniProt P00533, G719C); details: 1 mM ATP, 5.0 nM enzyme, room temperature
T6 construct: purchased SignalChem E10-12FG
Experimental: as §1, §2, §3

[7] = molecular target: T7, EGFR_d746-750 S768I (Homo sapiens, UniProt P00533, DEL746-750/S768I); details: 1 mM ATP, 2.0 nM enzyme, room temperature
T7 construct: purchased SignalChem E10-122B3G
Experimental: as §1, §2, §3

[8] = molecular target: T8, EGFR_L718Q (Homo sapiens, UniProt P00533, L718Q); details: 1 mM ATP, 2.0 nM enzyme, room temperature
T8 construct: purchased SignalChem E10-122G2G
Experimental: as §1, §2, §3

T6 sequence (P00533 25-1210 G719C): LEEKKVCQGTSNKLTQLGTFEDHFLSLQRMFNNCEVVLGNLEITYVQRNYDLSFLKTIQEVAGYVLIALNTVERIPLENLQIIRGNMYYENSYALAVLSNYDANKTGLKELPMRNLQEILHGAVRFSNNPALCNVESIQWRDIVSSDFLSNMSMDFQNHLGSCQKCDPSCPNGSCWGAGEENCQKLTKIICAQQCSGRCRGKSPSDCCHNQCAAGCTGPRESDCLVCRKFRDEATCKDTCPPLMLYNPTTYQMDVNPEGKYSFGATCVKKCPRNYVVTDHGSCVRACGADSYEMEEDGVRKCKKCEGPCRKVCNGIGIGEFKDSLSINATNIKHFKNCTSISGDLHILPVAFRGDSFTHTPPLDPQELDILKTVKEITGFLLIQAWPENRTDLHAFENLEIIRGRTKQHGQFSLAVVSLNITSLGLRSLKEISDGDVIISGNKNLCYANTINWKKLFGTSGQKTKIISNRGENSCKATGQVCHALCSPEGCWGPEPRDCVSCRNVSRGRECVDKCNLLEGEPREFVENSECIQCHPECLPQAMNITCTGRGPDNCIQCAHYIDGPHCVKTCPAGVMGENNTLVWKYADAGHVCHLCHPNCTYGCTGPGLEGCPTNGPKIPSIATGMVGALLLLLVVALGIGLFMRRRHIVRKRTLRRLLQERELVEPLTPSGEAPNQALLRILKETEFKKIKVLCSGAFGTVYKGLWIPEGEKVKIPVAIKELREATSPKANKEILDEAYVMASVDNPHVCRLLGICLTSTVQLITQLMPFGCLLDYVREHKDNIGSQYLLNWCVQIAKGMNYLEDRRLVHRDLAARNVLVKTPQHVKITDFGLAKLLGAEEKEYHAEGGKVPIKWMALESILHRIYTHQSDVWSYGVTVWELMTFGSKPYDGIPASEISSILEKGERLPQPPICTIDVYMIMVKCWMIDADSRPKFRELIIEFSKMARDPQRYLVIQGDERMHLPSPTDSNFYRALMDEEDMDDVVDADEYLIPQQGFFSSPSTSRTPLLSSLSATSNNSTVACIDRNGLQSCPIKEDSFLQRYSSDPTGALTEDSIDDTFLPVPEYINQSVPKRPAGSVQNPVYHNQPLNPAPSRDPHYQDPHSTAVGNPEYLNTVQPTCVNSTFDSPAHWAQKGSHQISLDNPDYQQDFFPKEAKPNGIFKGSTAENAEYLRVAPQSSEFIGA
T8 sequence (P00533 25-1210 L718Q): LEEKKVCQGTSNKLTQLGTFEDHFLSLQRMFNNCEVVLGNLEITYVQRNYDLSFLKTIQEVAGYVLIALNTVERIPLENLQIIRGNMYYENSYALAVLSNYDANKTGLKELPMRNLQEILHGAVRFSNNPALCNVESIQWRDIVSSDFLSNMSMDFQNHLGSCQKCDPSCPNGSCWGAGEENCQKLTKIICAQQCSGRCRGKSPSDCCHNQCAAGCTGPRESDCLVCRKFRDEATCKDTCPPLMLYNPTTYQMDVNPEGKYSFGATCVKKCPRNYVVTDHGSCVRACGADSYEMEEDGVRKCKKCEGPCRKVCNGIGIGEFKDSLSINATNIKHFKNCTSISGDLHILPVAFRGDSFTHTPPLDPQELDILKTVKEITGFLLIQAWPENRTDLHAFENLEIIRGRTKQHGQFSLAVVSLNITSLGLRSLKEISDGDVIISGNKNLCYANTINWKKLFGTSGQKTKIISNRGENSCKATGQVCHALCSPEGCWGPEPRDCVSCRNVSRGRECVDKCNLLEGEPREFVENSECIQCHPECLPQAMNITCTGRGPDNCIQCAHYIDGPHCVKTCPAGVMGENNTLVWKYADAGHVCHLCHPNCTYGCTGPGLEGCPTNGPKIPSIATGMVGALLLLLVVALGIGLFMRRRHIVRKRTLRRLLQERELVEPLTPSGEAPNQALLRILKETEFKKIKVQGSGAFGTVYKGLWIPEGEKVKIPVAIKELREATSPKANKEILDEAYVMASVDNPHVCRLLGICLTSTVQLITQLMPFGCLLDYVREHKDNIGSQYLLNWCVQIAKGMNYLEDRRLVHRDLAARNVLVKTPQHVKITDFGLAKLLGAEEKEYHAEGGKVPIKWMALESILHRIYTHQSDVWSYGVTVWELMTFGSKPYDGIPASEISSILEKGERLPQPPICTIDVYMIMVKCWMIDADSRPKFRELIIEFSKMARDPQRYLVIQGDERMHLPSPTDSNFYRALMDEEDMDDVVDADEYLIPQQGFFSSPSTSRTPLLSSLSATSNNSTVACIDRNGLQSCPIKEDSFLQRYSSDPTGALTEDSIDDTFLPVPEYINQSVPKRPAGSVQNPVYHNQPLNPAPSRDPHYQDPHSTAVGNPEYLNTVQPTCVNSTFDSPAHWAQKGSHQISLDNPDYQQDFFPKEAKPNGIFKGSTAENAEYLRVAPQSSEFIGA
T7 sequence (P00533 with tags, fused parts or gaps DEL746-750/S768I): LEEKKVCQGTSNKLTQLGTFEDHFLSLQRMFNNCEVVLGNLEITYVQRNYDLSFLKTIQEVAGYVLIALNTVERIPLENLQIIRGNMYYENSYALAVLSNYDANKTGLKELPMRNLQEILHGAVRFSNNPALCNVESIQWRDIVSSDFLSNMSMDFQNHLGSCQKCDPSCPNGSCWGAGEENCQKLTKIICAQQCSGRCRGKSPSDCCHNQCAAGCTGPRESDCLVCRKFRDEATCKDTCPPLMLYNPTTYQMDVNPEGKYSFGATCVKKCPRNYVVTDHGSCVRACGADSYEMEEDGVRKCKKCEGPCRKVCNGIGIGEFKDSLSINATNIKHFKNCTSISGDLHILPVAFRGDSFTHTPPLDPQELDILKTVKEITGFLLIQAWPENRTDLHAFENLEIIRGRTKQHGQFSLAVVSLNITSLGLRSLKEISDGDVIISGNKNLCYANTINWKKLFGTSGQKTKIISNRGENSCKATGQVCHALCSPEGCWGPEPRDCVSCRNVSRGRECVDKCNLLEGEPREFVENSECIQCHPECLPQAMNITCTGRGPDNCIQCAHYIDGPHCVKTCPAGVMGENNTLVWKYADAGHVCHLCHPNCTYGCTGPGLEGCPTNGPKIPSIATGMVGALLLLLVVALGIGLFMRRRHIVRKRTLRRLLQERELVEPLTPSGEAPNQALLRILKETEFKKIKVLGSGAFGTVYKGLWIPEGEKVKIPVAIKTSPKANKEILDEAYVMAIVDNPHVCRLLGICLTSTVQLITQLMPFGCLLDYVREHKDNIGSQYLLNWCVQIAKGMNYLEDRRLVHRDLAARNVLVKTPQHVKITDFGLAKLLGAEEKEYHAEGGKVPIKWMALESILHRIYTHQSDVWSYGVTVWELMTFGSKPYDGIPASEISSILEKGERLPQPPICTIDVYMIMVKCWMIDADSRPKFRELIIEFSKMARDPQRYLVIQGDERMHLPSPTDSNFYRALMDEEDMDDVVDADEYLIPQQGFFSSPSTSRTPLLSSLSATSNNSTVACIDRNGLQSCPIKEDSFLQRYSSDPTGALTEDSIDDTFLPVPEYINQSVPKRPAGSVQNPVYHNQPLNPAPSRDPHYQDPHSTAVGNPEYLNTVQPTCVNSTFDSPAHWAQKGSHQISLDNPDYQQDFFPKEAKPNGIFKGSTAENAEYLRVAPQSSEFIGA
T3 sequence (P00533 25-1210 L792H): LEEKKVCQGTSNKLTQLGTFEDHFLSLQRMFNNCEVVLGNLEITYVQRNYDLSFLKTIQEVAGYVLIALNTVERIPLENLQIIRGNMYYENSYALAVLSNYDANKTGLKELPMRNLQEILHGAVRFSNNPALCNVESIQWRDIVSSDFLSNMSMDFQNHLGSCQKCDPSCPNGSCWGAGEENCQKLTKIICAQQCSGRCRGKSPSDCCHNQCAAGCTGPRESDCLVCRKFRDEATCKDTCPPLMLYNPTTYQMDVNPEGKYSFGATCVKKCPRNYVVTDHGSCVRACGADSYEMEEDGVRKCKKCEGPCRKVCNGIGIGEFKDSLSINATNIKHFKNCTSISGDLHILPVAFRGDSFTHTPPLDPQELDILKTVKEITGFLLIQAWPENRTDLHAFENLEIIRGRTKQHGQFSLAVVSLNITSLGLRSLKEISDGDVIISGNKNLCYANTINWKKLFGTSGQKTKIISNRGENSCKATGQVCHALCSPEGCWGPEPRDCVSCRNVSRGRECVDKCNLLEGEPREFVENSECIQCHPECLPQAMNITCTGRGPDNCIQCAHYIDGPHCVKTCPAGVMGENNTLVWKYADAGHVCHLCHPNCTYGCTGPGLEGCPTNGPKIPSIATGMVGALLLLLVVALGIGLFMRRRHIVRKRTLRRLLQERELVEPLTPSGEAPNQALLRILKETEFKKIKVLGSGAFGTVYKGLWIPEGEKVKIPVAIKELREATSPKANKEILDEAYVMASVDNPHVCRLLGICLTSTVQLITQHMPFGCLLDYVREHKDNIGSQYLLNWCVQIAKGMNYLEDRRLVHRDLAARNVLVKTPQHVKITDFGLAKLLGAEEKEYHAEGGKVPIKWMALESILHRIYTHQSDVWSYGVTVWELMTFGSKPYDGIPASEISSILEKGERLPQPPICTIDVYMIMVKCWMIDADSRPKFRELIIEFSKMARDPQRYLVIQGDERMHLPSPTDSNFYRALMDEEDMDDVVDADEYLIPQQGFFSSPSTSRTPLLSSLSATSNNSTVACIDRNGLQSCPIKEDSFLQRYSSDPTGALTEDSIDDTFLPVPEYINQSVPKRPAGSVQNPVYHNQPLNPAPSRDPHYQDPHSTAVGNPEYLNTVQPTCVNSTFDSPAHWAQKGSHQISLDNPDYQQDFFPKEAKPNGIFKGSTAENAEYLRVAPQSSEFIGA

Structure (SMILES): C=CC(=O)Nc1cc(Nc2cc(N3OCC[C@@H]3c3cc(F)cc(F)c3)ncn2)c(OC)cc1N1CCC(N2CCN(C3CC3)CC2)CC1 [Compound I, N-[2-[4-(4-cyclopropyl-1-piperazinyl)-1-piperidinyl]-5-[[6-[(3R)-3-(3,5-difluorophenyl)-2-isoxazolidinyl]-4-pyrimidinyl]amino]-4-methoxyphenyl]-2-propenamide]
- IC50 [1]: 3.5 nM
- IC50 [2]: 0.9 nM
- IC50 [3]: 16 nM
- IC50 [4]: 2.3 ± 1.1 nM
- IC50 [5]: 1.5 nM
- IC50 [6]: 0.6 nM
- IC50 [7]: 1 nM
- IC50 [8]: 3.7 nM
